The source of these data is patent publication US5500428A, “Furyl-substituted purines and adenosine antagonists” (Imperial Chemical Industries PLC, priority 1991, dated 1996).

This experiment addresses T1, A2 Adenosine receptor (Rattus norvegicus, UniProt P30543).
T1 construct: membrane preparations derived from the rat phaeochromocytoma cell line PC 12; host or cells: PC 12 rat phaeochromocytoma cells, membranes
The experiment is described as follows: A2 Adenosine receptor affinity test: displacement of [3H]-NECA from PC 12 cell membrane preparations. The class given is binding. The protocol: The membrane preparation is obtained as follows: Frozen pellets of PC12 cells are washed twice with ice cold, buffered, physiological saline and the cells recovered by centrifugation (1500 G) at 3° C. The separated cells are then suspended in hypotonic solution (distilled water), allowed to stand on ice for 30 minutes and are then carefully homogenized using a standard high-speed homogeniser with periodic ice-cooling to obtain a fine suspension. […] The mixture is then incubated at 37° C. After 20 minutes, the reaction is terminated by dilution with ice-cold buffer and transfer onto ice. The material obtained containing the cell membranes is recovered by centrifugation and washed by resuspension in buffer and recentrifugation. The pellet produced is then resuspended in ice-cold buffer using a hand-driven homogenizer. The resultant membrane suspension is frozen and stored under liquid nitrogen until required.
After incubation, the samples are rapidly filtered over glass-fibre mats and the filter mats are washed to remove non-receptor-bound radioligand. Receptor-bound radioligand entrapped on the filter mats is then determined by liquid scintillation counting. Filtration and washing are carried out using a conventional vacuum filtration cell harvester. The specific binding (defined as the difference between the total binding and the non-specific binding) in the presence of the particular test compound is determined and compared with the control value.
On the technique in general: In a radioligand displacement assay an active substance lowers the binding of a labelled ligand.

Where [1] appears, read: read-out: displacement of control binding.

T1 sequence (P30543 whole entry): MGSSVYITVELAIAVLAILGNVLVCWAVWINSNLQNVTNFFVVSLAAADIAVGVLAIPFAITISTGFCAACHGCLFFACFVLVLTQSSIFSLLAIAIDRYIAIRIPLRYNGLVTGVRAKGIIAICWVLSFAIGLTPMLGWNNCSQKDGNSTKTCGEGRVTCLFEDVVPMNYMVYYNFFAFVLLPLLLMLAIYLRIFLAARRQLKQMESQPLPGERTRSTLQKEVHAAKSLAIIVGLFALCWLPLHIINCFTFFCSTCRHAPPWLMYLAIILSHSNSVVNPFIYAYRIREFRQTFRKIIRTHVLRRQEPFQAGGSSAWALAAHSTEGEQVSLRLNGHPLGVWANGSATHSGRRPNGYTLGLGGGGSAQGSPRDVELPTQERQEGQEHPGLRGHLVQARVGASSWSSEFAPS

Turning to `COc1ccc(CCNc2nc(N)c3nc(-c4ccco4)oc3n2)cc1` [Example 1, 7-amino-2-(2-furyl)-5-[2-(4-methoxyphenyl)ethyl]asino-oxazolo[5,4-d]pyrimidine], for the setting “[3H]-NECA displacement, PC 12 membranes, inferred from displacement at 10^-5 M and 10^-7 M, read-out: pIC50 (indicated by the % displacement values) (converted)”, the IC50 is < 100 nM. Under setting [1], the inhibition at 0.1 µM is 59% and the inhibition at 10 µM came to 78%.
